We go through 21 compounds from US8178547B2, “Heterocyclic antiviral compounds” (Roche Palo Alto LLC, priority 2008, dated 2012).

A value given as a limit tells only on which side of the number the result lay.

Data set [1] has as its target T1, HCV polymerase (NS5B570n-Con1) (Hepatitis C virus genotype 1b, UniProt Q9WMX2).
T1 construct: a 21 amino acid C-terminal deletion of full-length HCV polymerase; made in house; host or cells: E. coli BL21(DE3) pLysS, plasmid pET17b
Kind of data set: HCV NS5B RNA polymerase activity. Type of data set: biochemical, HCV Con1 strain. The procedure: The enzymatic activity of HCV polymerase (NS5B570n-Con1) was measured as the incorporation of radiolabeled nucleotide monophosphates into acid insoluble RNA products. Unincorporated radiolabeled substrate was removed by filtration and scintillant was added to the washed and dried filter plate containing radiolabeled RNA product. The amount of RNA product generated by NS5B570n-Con1 at the end of the reaction was directly proportional to the amount of light emitted by the scintillant.
The HCV polymerase used in the enzymatic activity assay is a 21 amino acid C-terminal deletion of full-length HCV polymerase derived from HCV Con1 strain, genotype 1b (GenBank accession number AJ242654) (NS5B570n-Con1). The NS5B570n-Con1 was sub-cloned downstream to the T7 promoter of the plasmid expression construct pET17b and transformed into E. coli strain BL21(DE3) pLysS for protein expression. A single colony was used to start an innoculum for a 10 L culture in LB media supplemented with 100 μg/mL ampicillin at 37° C. Protein expression was induced by the addition of 0.25 mM isopropyl-β-D-thiogalactopyranoside (IPTG) when the optical density of the culture at […] was 0.8. Induction of protein expression was carried out at 30° C. for 16 h after which the cells were harvested by centrifugation. NS5B570n-Con1 was purified to homogeneity using a three-column purification protocol including subsequent column chromatography on Ni-NTA, SP-Sepharose HP and Superdex 75 resins.
[…] TRK-412; specific activity: 30 to 60 Ci/mmol;), 1 μM each ATP, CTP, and GTP, 40 mM Tris-HCl pH 8.0, 40 mM NaCl, 4 mM DTT (dithiothreitol), 4 mM MgCl2, 5 μl of compound serial diluted in DMSO, and nuclease-free water to a final reaction volume of 50 μl. Enzymatic reactions in the presence of poly A RNA template (see section 0004) contained 20 nM Poly A:oligo(rU)16 premixed (see section 0004), 20 nM NS5B570n-Con1 enzyme, 1 μCi of tritiated UTP (Perkin Elmer catalog no. TRK-412; specific activity: 30 to 60 Ci/mmol), 40 mM Tris-HCl pH 8.0, 40 mM NaCl, 4 mM DTT (dithiothreitol), 4 mM MgCl2, 5 μl of compound serial diluted in DMSO, and nuclease-free water to a final reaction volume of 50 μl. Reaction mixtures were assembled in 96-well filter plates (cat #MADVN0B, Millipore Co.) and incubated for 2 h at 30° C. Reactions were stopped by addition of 10% final (v/v) trichloroacetic acid and incubated for 40 min at 4° C. Reactions were filtered, washed with 8 reaction volumes of 10% (v/v) trichloroacetic acetic acid, 4 reaction volumes of 70% (v/v) ethanol, air dried, and 25 μl of scintillant (Microscint 20, Perkin-Elmer) was added to each reaction well.
Two RNA templates were used to assay compounds described herein. The cIRES RNA template was 377 nucleotide long and consisted of a partial complementary sequence (36 nucleotides) of the core protein, followed by 341 nucleotide of the complementary sequence of the internal ribosome entry site. The poly A RNA template (GE Amersham catalog number 27-4110) was a homopolymeric RNA pre-annealed to a oligo(rU)16 primer at a molar ratio of 3-to-1 (primer-template).
The amount of light emitted from the scintillant was converted to counts per minute (CPM) on a Topcount® plate reader (Perkin-Elmer, Energy Range: Low, Efficiency Mode: Normal, Count Time: 1 min, Background Subtract: none, Cross talk reduction: Off).
Data was analyzed in Excel® (Microsoft) and ActivityBase® (Idbs®). The reaction in the absence of enzyme was used to determine the background signal, which was subtracted from the enzymatic reactions. […] All data was expressed as a percentage of the positive control. The compound concentration at which the enzyme-catalyzed rate of RNA synthesis was reduced by 50%

Setting [2] is: NS5B pol inhibition IC50, as in Example 32 (20 nM RNA template).

One may read the melting point as the temperature of the solid-liquid transition. The IC50 is the concentration that inhibits the measured activity by half. High values mean a need for much substance, low ones inhibition by little substance. On to `COc1c(/C=C/c2ccc(NS(C)(=O)=O)cc2)cc(-c2c[nH]c(=O)[nH]c2=O)cc1C1(C(F)F)CC1` [Compound I-30, N-(4-{(E)-2-[3-(1-Difluoromethyl-cyclopropyl)-5-(2,4-dioxo-1,2,3,4-tetrahydro-pyrimidin-5-yl)-2-methoxy-phenyl]-vinyl}-phenyl)-methanesulfonamide], for which the melting point lay in the range of 292 to 295 °C. Also, inhibition in data set [1] (setting [2]) was half-maximal at 0.3 nM (IC50).
The matching figures for `COc1c(/C=C/c2ccc(NS(C)(=O)=O)cc2)cc(-c2cc(C)n[nH]c2=O)cc1C(C)(C)C` [Compound I-17]: 292 to 294 °C and 10 nM.
Compound `COc1c(/C=C/c2ccccc2)cc(-c2ccn[nH]c2=O)cc1C(C)(C)C` [Compound I-14] returned a melting point of 100 to 102 °C. Further, the IC50 in data set [1] (setting [2]) was found to be 7 nM.
The compound `COc1c(/C=C/c2ccc(NS(C)(=O)=O)cc2)cc(-c2cnc(C)[nH]c2=O)cc1C(C)(C)C` [Compound I-43, N-(4-{(E)-2-[3-tert-Butyl-2-methoxy-5-(2-methyl-6-oxo-1,6-dihydro-pyrimidin-5-yl)-phenyl]-vinyl}-phenyl)-methanesulfonamide] returned an IC50 in data set [1] (setting [2]) of 1.1 nM.
In the case of `COc1c(NC(=O)c2ccc(NCC(F)(F)F)cc2)cc(-c2ccn[nH]c2=O)cc1C(C)(C)C` [Compound I-20, N-[3-tert-Butyl-2-methoxy-5-(3-oxo-2,3-dihydro-pyridazin-4-yl)-phenyl]-4-(2,2,2-trifluoro-ethylamino)-benzamide], the melting point is 250 to 252 °C. In data set [1] (setting [2]), this compound registered an IC50 of 5 nM. In data set [1] (NS5B pol inhibition IC50, cell values marked ^2, as in Example 32 except RNA template concentration 3 nM (footnote 3)), the IC50 turned out to be 3 nM.
In turn, `COc1c(/C=C/c2ccc(NS(C)(=O)=O)cc2)cc(-c2c[nH]c(=O)[nH]c2=O)cc1OC(F)(F)F` [Compound I-42, N-(4-{(E)-2-[5-(2,4-Dioxo-1,2,3,4-tetrahydro-pyrimidin-5-yl)-2-methoxy-3-trifluoromethoxy-phenyl]-vinyl}-phenyl)-methanesulfonamide] gave a melting point of 202 to 205 °C. This compound displayed an IC50 in data set [1] (setting [2]) of 6.7 nM.
In the case of `COc1c(/C=C/c2ccc(NS(C)(=O)=O)cc2F)cc(-c2c[nH]c(=O)[nH]c2=O)cc1C(C)(C)C` [Compound I-7, N-(4-{(E)-2-[3-tert-Butyl-5-(2,4-dioxo-1,2,3,4-tetrahydro-pyrimidin-5-yl)-2-methoxy-phenyl]-vinyl}-3-fluoro-phenyl)-methanesulfonamide], the IC50 in data set [1] (setting [2]) was determined as 0.3 nM.
`COc1c(/C=C/c2ccc(NS(C)(=O)=O)cc2)cc(-c2cnc(Cl)[nH]c2=O)cc1C(C)(C)C` [Compound I-32, N-(4-{(E)-2-[3-tert-Butyl-5-(2-chloro-6-oxo-1,6-dihydro-pyrimidin-5-yl)-2-methoxy-phenyl]-vinyl}-phenyl)-methanesulfonamide] yielded a melting point greater than 300 °C. The compound further registered a 50% inhibitory concentration (IC50) in data set [1] (setting [2]) of 5 nM.
Compound `COc1c(/C=C/c2ccc(NS(C)(=O)=O)cn2)cc(-c2c[nH]c(=O)[nH]c2=O)cc1C(C)(C)C` [Compound I-29, N-(6-{(E)-2-[3-tert-Butyl-5-(2,4-dioxo-1,2,3,4-tetrahydro-pyrimidin-5-yl)-2-methoxy-phenyl]-vinyl}-pyridin-3-yl)-methanesulfonamide] registered an IC50 in data set [1] (setting [2]) of 1.2 nM.
`COCc1cc(NS(C)(=O)=O)ccc1/C=C/c1cc(-c2cnc(OC)[nH]c2=O)cc(C(C)(C)C)c1OC` [Compound I-39, N-(4-{(E)-2-[3-tert-Butyl-2-methoxy-5-(2-methoxy-6-oxo-1,6-dihydro-pyrimidin-5-yl)-phenyl]-vinyl}-3-methoxymethyl-phenyl)-methanesulfonamide] displayed an IC50 in data set [1] (setting [2]) of 0.9 nM.
Compound `COc1c(/C=C/c2ccc(NS(C)(=O)=O)cc2)cc(-c2cn(C)c(=O)[nH]c2=O)cc1C(C)(C)C` [Compound I-8, N-(4-{(E)-2-[3-tert-Butyl-2-methoxy-5-(1-methyl-2,4-dioxo-1,2,3,4-tetrahydro-pyrimidin-5-yl)-phenyl]-vinyl}-phenyl)-methanesulfonamide] yielded a melting point greater than 300 °C. The IC50 in data set [1] (setting [2]) was 1.3 nM.
Take `COc1c(/C=C/c2ccc(NS(C)(=O)=O)cc2)cc(-c2c(O)nc(C)[nH]c2=O)cc1C(C)(C)C` [Compound I-41, N-(4-{(E)-2-[3-tert-Butyl-5-(4-hydroxy-2-methyl-6-oxo-1,6-dihydro-pyrimidin-5-yl)-2-methoxy-phenyl]-vinyl}-phenyl)-methanesulfonamide]: in data set [1] (setting [2]), it took 0.4 nM to reach half-maximal inhibition (IC50).
On the same count and under the same terms, in the case of `COc1c(-c2ccc3cc(NS(C)(=O)=O)ccc3c2)cc(-c2ncn[nH]c2=O)cc1C(C)(C)C` [Compound I-37, N-{6-[3-tert-Butyl-2-methoxy-5-(6-oxo-1,6-dihydro-[1,2,4]triazin-5-yl)-phenyl]-naphthalen-2-yl}-methanesulfonamide] it was 0.7 nM.
On the same count and under the same terms, in the case of `CC(C)(C)c1cc(CCc2ccc(NS(C)(=O)=O)cc2)c(O)c(-c2ncc[nH]c2=O)c1` [Compound I-5, N-(4-{2-[5-tert-butyl-2-hydroxy-3-(3-oxo-3,4-dihydro-pyrazin-2-yl)-phenyl]-ethyl}-phenyl)-methanesulfonamide] it was 92 nM.
As for `COc1c(/C=C/c2ccc(NS(C)(=O)=O)cc2)cc(-c2ncc[nH]c2=O)cc1C1(C(F)F)CC1` [Compound I-31, N-(4-{(E)-2-[3-(1-Difluoromethyl-cyclopropyl)-2-methoxy-5-(3-oxo-3,4-dihydro-pyrazin-2-yl)-phenyl]-vinyl}-phenyl)-methanesulfonamide], the melting point lay in the range of 241 to 243 °C. Besides, half-maximal inhibition in data set [1] (setting [2]) (IC50) was put at 0.3 nM.
Consider `CC(C)(C)c1cc(/C=C/c2ccc(NS(C)(=O)=O)cc2)cc(-c2ccn[nH]c2=O)c1` [Compound I-15], for which the IC50 in data set [1] (setting [2]) stood at 3 nM.
Regarding `COc1c(CCc2ccc(NS(C)(=O)=O)cc2)cc(-c2ncc[nH]c2=O)c(F)c1C(C)(C)C` [Compound I-3, N-(4-{2-[3-tert-Butyl-4-fluoro-2-methoxy-5-(3-oxo-3,4-dihydro-pyrazin-2-yl)-phenyl]-ethyl}-phenyl)-methanesulfonamide], the melting point fell in the range of 130 to 132 °C. This compound gave an IC50 in data set [1] (setting [2]) of 41 nM.
As to `COc1ccc(-c2ccn[nH]c2=O)cc1C(C)(C)C` [Compound I-16], the melting point lay within 202 to 204 °C. In addition, the IC50 in data set [1] (setting [2]) was found to be 132 nM.
Take `COc1c(/C=C/c2ccc(NS(C)(=O)=O)cc2)cc(-c2ncc[nH]c2=O)cc1C(C)(C)C` [Compound I-11, N-(4-{(E)-2-[3-tert-Butyl-2-methoxy-5-(3-oxo-3,4-dihydro-pyrazin-2-yl)-phenyl]-vinyl}-phenyl)-methanesulfonamide]: in data set [1] (setting [2]), 4 nM corresponded to half-maximal inhibition (IC50).
Same read-out and setting: in the case of `COc1c(/C=C/c2ccc(NS(C)(=O)=O)cc2)cc(-c2ccn[nH]c2=O)c2c1C(C)(C)CO2` [Compound I-27, N-(4-{(E)-2-[4-Methoxy-3,3-dimethyl-7-(3-oxo-2,3-dihydro-pyridazin-4-yl)-2,3-dihydro-benzofuran-5-yl]-vinyl}-phenyl)-methanesulfonamide] it was 0.3 nM; in that of `COc1c(/C=C/c2ccc(NS(C)(=O)=O)cc2)cc(-c2c[nH]c(=O)[nH]c2=O)cc1CC(F)(F)F` [Compound I-38, N-(4-{(E)-2-[5-(2,4-Dioxo-1,2,3,4-tetrahydro-pyrimidin-5-yl)-2-methoxy-3-(2,2,2-trifluoro-ethyl)-phenyl]-vinyl}-phenyl)-methanesulfonamide], 1.4 nM.
